Tests used:
Experiment in all cases: Protein kinase inhibition assay
Type in all cases: biochemical
MuSK(h) = MuSK(h) (Homo sapiens, UniProt O15146); settings: read-out: percent residual activity of MuSK(h)
Protocol: (§1) Certain compounds were tested for activity in protein kinase inhibition assays. All substrates were dissolved and diluted to working stocks in de-ionized water, apart from histone H1 (10× working stock in 20 mM MOPS pH 7.0), PDKtide (10× working stock in 50 mM Tris pH 7.0) ATF2 (which is typically stored at a 20× working stock in 50 mM Tris pH 7.5, 150 mM NaCl, 0.1 mM EGTA, 0.03% Brij-35, 50% glycerol, 1 mM benzamidine, 0.2 mM PMSF and 0.1% R-mercaptoethanol), KKLNRTLSFAEPG (SEQ ID NO:203) and RRRLSFAEPG (SEQ ID NO:204) (50 mM HEPES pH 7.4) and GGEEEEYFELVKKKK (SEQ ID NO:205) (20 mM MOPS pH 7.0). All kinases were pre-diluted to a 10× working concentration prior to addition into the assay. The composition of the dilution buffer for each kinase is detailed below.
(§2) In a final reaction volume of 25 μl, MuSK (h) (5-10 mU) is incubated with 8 mM MOPS pH 7.0, 0.2 mM EDTA, 5 mM MnCl2, 0.33 mg/ml myelin basic protein, 10 mM MgAcetate and [gamma-33P-ATP] (specific activity approx. 500 cpm/pmol, concentration as required). The reaction is initiated by the addition of the MgATP mix. After incubation for 40 minutes at room temperature, the reaction is stopped by the addition of 5 μl of a 3% phosphoric acid solution. 10 μl of the reaction is then spotted onto a P30 filtermat and washed three times for 5 minutes in 75 mM phosphoric acid and once in methanol prior to drying and scintillation counting.

CDK1/cyclinB(h) = CDK1/cyclinB(h) (Homo sapiens, UniProt P06493); settings: read-out: percent residual activity of CDK1/cyclinB(h)
CDK1/cyclinB(h), sequence (P06493 whole entry): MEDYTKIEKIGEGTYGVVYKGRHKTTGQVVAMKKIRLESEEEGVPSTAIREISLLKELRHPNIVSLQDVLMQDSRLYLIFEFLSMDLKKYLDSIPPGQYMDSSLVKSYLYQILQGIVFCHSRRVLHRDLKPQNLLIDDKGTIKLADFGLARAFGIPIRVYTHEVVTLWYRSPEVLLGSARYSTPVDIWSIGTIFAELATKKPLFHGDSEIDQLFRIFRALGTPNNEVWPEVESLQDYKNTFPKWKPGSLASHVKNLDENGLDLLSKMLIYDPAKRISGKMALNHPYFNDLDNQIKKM
CDK1/cyclinB(h), sequence (P14635 whole entry partner): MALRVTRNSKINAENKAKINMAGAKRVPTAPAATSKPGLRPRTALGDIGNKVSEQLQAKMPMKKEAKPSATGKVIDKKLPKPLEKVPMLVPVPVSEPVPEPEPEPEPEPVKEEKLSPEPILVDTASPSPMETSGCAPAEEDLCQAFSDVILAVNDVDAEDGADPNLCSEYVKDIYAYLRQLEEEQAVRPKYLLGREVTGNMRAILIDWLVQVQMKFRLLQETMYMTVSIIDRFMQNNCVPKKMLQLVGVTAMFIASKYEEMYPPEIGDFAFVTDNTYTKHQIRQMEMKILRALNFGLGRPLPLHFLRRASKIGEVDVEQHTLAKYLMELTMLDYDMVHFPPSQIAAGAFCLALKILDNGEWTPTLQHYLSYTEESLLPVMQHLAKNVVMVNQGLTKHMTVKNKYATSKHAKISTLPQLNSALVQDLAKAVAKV
Protocol: as §1
as §2, with “CDK1/cyclinB” for “MuSK”, “0.1” for “5 mM MnCl2, 0.33”, “histone H1,” for “myelin basic protein,”

CSK(h) = CSK(h) (Homo sapiens, UniProt P41240); settings: read-out: percent residual activity of CSK(h)
CSK(h), sequence (P41240 whole entry): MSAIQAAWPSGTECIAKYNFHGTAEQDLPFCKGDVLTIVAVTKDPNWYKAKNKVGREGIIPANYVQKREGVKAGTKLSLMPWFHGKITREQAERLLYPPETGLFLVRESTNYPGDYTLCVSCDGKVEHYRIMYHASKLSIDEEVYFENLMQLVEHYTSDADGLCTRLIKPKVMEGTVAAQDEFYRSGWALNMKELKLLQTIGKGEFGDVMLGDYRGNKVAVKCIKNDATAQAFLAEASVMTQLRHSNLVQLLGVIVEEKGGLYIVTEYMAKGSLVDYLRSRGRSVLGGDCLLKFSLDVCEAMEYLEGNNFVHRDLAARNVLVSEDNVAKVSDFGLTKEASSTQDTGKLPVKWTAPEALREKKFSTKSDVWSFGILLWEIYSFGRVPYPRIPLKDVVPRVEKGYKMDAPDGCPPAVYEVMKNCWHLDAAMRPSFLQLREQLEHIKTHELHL
Protocol: as §1
In a final reaction volume of 25 μl, CSK (h) (5-10 mU) is incubated with 50 mM Tris pH 7.5, 0.1 mM EGTA, 0.1 mM Na3VO4, 0.1% R-mercaptoethanol, 0.1 mg/ml poly(Glu, Tyr) 4:1, 10 mM MnCl2, 10 mM MgAcetate and [gamma-33P-ATP] (specific activity approx. 500 cpm/pmol, concentration as required). The reaction is initiated by the addition of the MgATP mix. After incubation for 40 minutes at room temperature, the reaction is stopped by the addition of 5 μl of a 3% phosphoric acid solution. […]

NEK2(h) = NEK2(h) (Homo sapiens, UniProt P51955); settings: read-out: percent residual activity of NEK2(h)
NEK2(h), sequence (P51955 whole entry): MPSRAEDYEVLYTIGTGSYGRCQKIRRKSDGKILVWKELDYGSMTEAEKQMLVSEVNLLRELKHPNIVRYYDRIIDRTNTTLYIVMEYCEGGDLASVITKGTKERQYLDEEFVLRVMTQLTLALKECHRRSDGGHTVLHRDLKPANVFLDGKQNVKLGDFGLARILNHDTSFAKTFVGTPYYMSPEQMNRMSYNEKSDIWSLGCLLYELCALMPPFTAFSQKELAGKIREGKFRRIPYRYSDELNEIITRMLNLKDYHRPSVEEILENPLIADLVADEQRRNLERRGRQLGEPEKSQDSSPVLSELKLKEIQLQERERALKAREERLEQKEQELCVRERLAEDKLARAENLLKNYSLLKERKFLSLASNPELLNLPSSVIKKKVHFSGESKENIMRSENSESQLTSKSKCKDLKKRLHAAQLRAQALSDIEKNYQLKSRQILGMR
Protocol: as §1
as §2, with “NEK2” for “MuSK”, “EDTA,” for “EDTA, 5 mM MnCl2,”

TSSK2(h) = TSSK2(h) (Homo sapiens, UniProt Q96PF2); settings: read-out: percent residual activity of TSSK2(h)
TSSK2(h), sequence (Q96PF2 whole entry): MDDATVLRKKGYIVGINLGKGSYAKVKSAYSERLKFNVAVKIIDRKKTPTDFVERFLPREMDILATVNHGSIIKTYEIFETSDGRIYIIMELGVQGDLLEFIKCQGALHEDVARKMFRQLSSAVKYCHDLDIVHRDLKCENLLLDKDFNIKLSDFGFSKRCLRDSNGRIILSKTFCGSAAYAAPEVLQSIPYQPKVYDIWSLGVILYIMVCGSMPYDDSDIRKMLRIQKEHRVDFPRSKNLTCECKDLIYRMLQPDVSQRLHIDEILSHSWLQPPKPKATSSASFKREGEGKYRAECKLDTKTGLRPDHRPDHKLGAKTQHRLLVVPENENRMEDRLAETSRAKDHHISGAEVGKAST
Protocol: as §1
as §2, with “TSSK2” for “MuSK”, “100 μM […] (SEQ ID NO:213),” for “5 mM MnCl2, 0.33 mg/ml myelin basic protein,”, “[y-33P-ATP]” for “[gamma-33P-ATP]”

PKCδ(h) = PKCδ(h) (Homo sapiens, UniProt Q05655); settings: read-out: percent residual activity of PKCδ(h)
PKCδ(h), sequence (Q05655 whole entry): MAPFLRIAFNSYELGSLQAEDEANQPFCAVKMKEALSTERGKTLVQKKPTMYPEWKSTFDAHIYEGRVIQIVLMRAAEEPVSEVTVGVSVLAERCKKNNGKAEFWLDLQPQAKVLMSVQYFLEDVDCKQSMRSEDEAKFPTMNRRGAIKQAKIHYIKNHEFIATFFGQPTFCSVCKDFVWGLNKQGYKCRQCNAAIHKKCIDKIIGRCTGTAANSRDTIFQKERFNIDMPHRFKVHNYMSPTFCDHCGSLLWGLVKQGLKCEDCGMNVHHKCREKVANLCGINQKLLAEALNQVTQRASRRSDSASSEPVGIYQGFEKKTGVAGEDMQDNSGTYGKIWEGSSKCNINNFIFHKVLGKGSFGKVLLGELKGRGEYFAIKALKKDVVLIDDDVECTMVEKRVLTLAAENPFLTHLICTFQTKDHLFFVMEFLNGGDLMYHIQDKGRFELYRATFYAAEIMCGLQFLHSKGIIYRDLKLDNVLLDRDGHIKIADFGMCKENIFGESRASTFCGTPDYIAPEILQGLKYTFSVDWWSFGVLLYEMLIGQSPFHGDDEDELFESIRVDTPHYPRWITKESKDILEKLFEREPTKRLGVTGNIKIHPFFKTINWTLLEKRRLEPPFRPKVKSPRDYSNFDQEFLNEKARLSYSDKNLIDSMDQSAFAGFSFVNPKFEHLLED
Protocol: as §1
In a final reaction volume of 25 μl, PKCδ (h) (5-10 mU) is incubated with 20 mM HEPES pH 7.4, 0.03% Triton X-100, 0.1 mg/ml phosphatidylserine, 10 μg/ml diacylglycerol, 50 μM ERMRPRKRQGSVRRRV (SEQ ID NO:224), 10 mM MgAcetate and [gamma-33P-ATP] (specific activity approx. 500 cpm/pmol, concentration as required). The reaction is initiated by the addition of the MgATP mix. After incubation for 40 minutes at room temperature, the reaction is stopped by the addition of 5 μl of a 3% phosphoric acid solution. […]

MuSK(h), sequence (O15146 24-869): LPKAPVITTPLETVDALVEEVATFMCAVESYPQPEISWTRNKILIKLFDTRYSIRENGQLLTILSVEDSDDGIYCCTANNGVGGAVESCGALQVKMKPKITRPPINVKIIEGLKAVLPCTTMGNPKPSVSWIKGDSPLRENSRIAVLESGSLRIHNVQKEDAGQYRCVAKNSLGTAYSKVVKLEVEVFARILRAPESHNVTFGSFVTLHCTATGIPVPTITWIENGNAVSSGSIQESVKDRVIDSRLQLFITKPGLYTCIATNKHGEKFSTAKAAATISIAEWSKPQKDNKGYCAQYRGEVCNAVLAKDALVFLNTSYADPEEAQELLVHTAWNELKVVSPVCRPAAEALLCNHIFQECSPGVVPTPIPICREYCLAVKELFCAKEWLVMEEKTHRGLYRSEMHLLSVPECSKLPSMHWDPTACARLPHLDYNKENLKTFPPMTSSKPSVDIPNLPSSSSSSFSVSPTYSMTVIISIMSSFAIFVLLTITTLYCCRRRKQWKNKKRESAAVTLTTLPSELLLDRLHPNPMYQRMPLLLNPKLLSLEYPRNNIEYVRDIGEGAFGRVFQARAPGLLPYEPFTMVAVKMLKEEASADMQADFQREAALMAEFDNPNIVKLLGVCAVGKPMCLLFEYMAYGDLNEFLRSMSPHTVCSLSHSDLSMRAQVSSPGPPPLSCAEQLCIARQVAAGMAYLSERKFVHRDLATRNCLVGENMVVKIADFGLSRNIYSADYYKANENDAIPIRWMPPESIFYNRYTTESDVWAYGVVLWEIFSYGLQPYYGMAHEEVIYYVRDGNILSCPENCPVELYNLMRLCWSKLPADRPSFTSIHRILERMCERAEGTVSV

Compound	remaining activity at 2.5 µM (MuSK(h)) [%]	remaining activity at 2.5 µM (CDK1/cyclinB(h)) [%]	remaining activity at 2.5 µM (CSK(h)) [%]	remaining activity at 2.5 µM (NEK2(h)) [%]	remaining activity at 2.5 µM (TSSK2(h)) [%]	remaining activity at 2.5 µM (PKCδ(h)) [%]
CN1CCCC1CCNC(=O)c1cn2c3c(c(N4CCC(c5cnccn5)C4)c(F)cc3c1=O)Oc1cc3ccccc3cc1-2 (stereo not drawn) [Compound A-1]	110	84	116	65	105	105
CC(=O)N1CCN(c2ccc3c(=O)c(C(=O)NCCN4CCCC4)c4n(C)c5ccccc5n4c3n2)CC1 [Compound B-1]	108	93	92	106	110	100

— patent US20070117770A1, “Human ribosomal DNA (rDNA) and ribosomal RNA (rRNA) nucleic acids and uses thereof” (Cylene Pharmaceuticals, Inc., priority 2005, published 2007)
